In US20220280593A1, “METHODS FOR […] CORONARY ARTERY BYPASS GRAFT PROCEDURE” (Stealth BioTherapeutics Inc., priority 2009, published 2022):
Entries after “also recorded” stand apart in the source; their conditions may differ. Non-standard residues stand in square brackets, D forms with d. No end group written: not given here.

Assays:
[1] = system: several mammalian cell types; settings: energy-independent manner; Zhao et al., 2003; cited from earlier work
[2] = system: mitochondria; settings: cited from earlier work
[3] = system: wild type mice; settings: treatment at 0, 6, 24 and 48 hours after 30 min occlusion; U.S. Patent Publication No. 20070129306; cited from earlier work
[4] = Stability of the drug substance; type: physicochemical
Procedure: Study Drug. D-Arg-2′6′-Dmt-Lys-Phe-NH2 is a small peptide (CAS No. 736992-21-5). Its molecular weight is 639.8 (free base). […] The drug substance will be provided as a lyophilized powder in sterile glass vials. Each vial will be reconstituted with 10 mL of sterile D5W by the unblinded pharmacist at each site.

[5] = system: mu-opioid receptor; settings: cited from earlier work
[6] = system: animal model of ARI; settings: cited from earlier work
[7] = system: mitochondria; settings: cited from earlier work; remark: listed apart in the source
[8] = system: New Zealand white rabbits; assay: Rabbit model of acute myocardial ischemia and reperfusion (30 min ischemia, 180 min reperfusion), infarct size by histomorphometry; type: in vivo
Procedure: New Zealand white rabbits were used in this study. The rabbits were males and >10 weeks in age. Environmental controls in the animal rooms were set to maintain temperatures of 61° to 72° F. and relative humidity between 30% and 70%. Room temperature and humidity were recorded hourly, and monitored daily. There were approximately 10-15 air exchanges per hour in the animal rooms. Photoperiod was 12-hr light/12-hr dark (via fluorescent lighting) with exceptions as necessary to accommodate dosing and data collection. Routine daily observations were performed. Harlan Teklad, Certified Diet (2030C), rabbit diet was provided approximately 180 grams per day from arrival to the facility. In addition, fresh fruits and vegetables were given to the rabbit 3 times a week.
The peptide D-Arg-2′6′-Dmt-Lys-Phe-NH2 (sterile lyophilized powder) was used as the test article. Dosing solutions were formulated at no more than 1 mg/ml, and were delivered via continuous infusion (IV) at a constant rate (e.g., 50 μL/kg/min). Normal saline (0.9% NaCl) was used as a control.
The test/vehicle articles were given intravenously, under general anesthesia, in order to mimic the expected route of administration in the clinical setting of AMI and PTCA. Intravenous infusion was administered via a peripheral vein using a Kd Scientific infusion pump (Holliston, MA 01746) at a constant volume (e.g., 50 μL/kg/min).
The study followed a predetermined placebo and sham controlled design. In short, 10-20 healthy, acclimatized, male rabbits were assigned to one of three study arms (approximately 2-10 animals per group). Arm A (n=10, CTRL/PLAC) includes animals treated with vehicle (vehicle; VEH, IV); Arm B (n=10, treated) includes animals treated with peptide; Arm C (n=2, SHAM) includes sham-operated time-controls treated with vehicle (vehicle; VEH, IV) or peptide.
In all cases, treatments were started approximately 10 min after the onset of a 30 min ischemic insult (coronary occlusion) and continued for up to 3 h following reperfusion. In all cases, cardiovascular function was monitored both prior to and during ischemia, as well as for up to 180 min (3 h) post-reperfusion. The experiments were terminated 3 h post-reperfusion (end of study); irreversible myocardial injury (infarct size by histomorphometery) at this time-point was evaluated, and was the primary-end-point of the study.
Following hemodynamic stabilization and baseline measurements, the animals were subjected to an acute 30 min ischemic insult by tightening of the LAD/LCX coronary artery snares. […]
Histopathology/Histomorphometery. At the completion of the protocol, irreversible myocardial injury (i.e., infarction) resulting from the I/R insult was evaluated. […]

[9] = 45 min ischemia and 24 h reperfusion
[10] = IV continuous infusion from 10 min into 30 min ischemia through 180 min reperfusion, n = 10, p < 0.05 vs placebo

## 2′,6′-Dmt-D-Arg-Phe-Lys-NH2
[1]
  penetration of the plasma membrane: readily penetrates

## D-Arg-2′,6′-Dmt-Lys-Phe-NH2
[2]
  adenosine triphosphate (ATP) levels: maintaining
  electron transfer within the mitochondrial electron transport chain: facilitating
  loss of mitochondrial membrane potential: preventing
  mitochondrial respiration (oxygen consumption): maintaining
  mitochondrial swelling (mPTP opening): preventing
  reactive oxygen species (ROS): scavenging
  release of cytochrome c: preventing
[3]
  hemispheric swelling compared to saline controls: significant reduction
  infarct volume compared to saline controls: significant reduction
[4]
  resistance to oxidation: resistant to oxidation
  temperature up to which stable: up to 40 °C
[4]; powder or liquid form
  stability to light: stable to light
[5]
  mu-opioid receptor agonist activity: does not have mu-opioid receptor agonist activity
[6]; [9]
  histopathological score: significantly improved
  rate of ATP production after reperfusion: significantly increased
[6]; U.S. Patent Publication No. 20090221514
  incidence of ARI caused by ischemia-reperfusion: effective in reducing
[6]; animal model of ARI
  interstitial fibrosis, tubular apoptosis, macrophage infiltration and tubular proliferation: effective in reducing
[7]
  concentration in the mitochondrial pellet relative to extracellular fluid: approximately 5000 fold
  intracellular concentration relative to extracellular fluid: six
[8]; 30 min ischemia, infusion continued 180 min after reperfusion, listed as peptide
  myocardial infarct size compared to the control: decreased infarct size; also recorded: able to reduce myocardial infarct size
[8]; [10]
  Myocardial Area IA/AR (infarcted area / area at risk): 24.7 ± 4.7%
  Myocardial Area IA/LV (infarcted area / left ventricular area): 16.2 ± 3.4%
[8]; treatment for less than 3 hours after reperfusion, i.e., 30 min, data not shown
  myocardial salvage: comparable myocardial salvage

## F[dR]FK-NH2
[5]
  mu-opioid receptor agonist activity: does not have mu-opioid receptor agonist activity

## Tyr-D-Arg-Phe-Lys-NH2
[5]
  mu-opioid receptor agonist activity: has mu-opioid receptor agonist activity
